Experimental data reported in patent US20040171086A1, “Selective modulation of TLR-mediated biological activity” (3M Innovative Properties Company, priority 2003, published 2004).

Tests used:
[1] = target: T1, human TLR8 (Homo sapiens, UniProt Q9NR97); assay: NFκB-luciferase reporter assay in HEK293 cells transfected with human TLR8 (HEK293-TLR8); type: cell-based; details: HEK293-TLR8, 10 μM IRM, 16 hours
T1 construct: expressed in transfected cells; host or cells: HEK293 (ATCC CRL-1573), pIRES vector, G-418 selected
T1 sequence (Q9NR97 27-1041): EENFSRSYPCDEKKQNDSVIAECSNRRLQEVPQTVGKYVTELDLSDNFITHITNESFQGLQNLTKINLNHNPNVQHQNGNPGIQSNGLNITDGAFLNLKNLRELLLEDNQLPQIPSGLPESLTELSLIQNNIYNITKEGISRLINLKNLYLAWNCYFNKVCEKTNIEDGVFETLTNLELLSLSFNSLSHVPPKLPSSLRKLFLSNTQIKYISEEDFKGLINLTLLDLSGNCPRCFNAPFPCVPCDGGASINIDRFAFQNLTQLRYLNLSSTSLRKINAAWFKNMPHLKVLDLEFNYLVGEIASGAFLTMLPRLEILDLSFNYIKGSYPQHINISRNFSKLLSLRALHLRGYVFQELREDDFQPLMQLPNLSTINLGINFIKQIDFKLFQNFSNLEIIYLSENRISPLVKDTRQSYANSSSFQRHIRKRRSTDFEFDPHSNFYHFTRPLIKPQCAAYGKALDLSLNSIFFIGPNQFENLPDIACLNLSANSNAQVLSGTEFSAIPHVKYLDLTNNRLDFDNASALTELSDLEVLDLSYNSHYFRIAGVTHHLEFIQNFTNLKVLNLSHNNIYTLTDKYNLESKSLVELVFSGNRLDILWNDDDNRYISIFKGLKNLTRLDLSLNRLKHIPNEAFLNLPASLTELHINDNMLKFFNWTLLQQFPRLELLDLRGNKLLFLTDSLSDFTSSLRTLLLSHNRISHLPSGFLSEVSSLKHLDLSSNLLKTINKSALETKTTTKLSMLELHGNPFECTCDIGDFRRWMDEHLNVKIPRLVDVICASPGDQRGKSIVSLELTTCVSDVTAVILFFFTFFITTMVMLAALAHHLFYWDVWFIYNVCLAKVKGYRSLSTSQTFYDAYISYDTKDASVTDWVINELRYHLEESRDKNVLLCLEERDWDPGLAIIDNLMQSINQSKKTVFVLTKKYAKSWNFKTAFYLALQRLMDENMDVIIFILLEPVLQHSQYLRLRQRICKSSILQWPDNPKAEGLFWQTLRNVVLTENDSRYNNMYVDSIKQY
Protocol: A compound was identified as increasing cellular activity mediated through a given TLR if it induced at least a two-fold increase in NFκB-induced luciferase signal compared to the control.
HEK293 medium was prepared from 90% Minimum Essential Medium (MEM) with 2 mM L-glutamine and Earle's Balanced Salt Solution (Invitrogen Corp., Rockville, Md.) adjusted to contain 1.5 g/L sodium bicarbonate, 0.1 mM non-essential amino acids, and 1.0 mM sodium pyruvate; 10% heat-inactivated fetal calf serum. HEK293 cells were cultured by incubating cells in HEK293 medium overnight at 37° C., 8% CO2.
The cells were co-transfected with (1) pIRES (BD Biosciences Clontech, Palo Alto, Calif.) either (a) unmodified (HEK293-vector), (b) containing an expressible human TLR7 gene (HEK293-TLR7), or (c) containing an expressible human TLR8 gene (HEK293-TLR8), and (2) NFκB-luc reporter (Stratagene, La Jolla, Calif.) in a 10:1 ratio with Fugene 6 transfection reagent (Roche Diagnostics Corp., Indianapolis, Ind.) following the manufacturer's instructions.
The cells were stimulated with 1 μL of IRM compounds at 1 mM in DMSO (final IRM concentration of 10 μM) or 1 μL DMSO as a control. The plates were then incubated an additional 16 hours at 37° C., 5% CO2. The luciferase signal was read using the LucLite kit (Packard Instrument Co., Meriden, Conn.). Luminescence was measured on an LMAX luminometer (Molecular Devices Corp., Sunnyvale, Calif.).

[2] = test system: plasmacytoid dendritic cells (pDCs); assay: Activation of plasmacytoid dendritic cells (CD80/HLA-DR staining, flow cytometry); type: cell-based, human; details: two donors; 1 μM IRM or 3 μM CpG2216, 16-24 hours; HLA-DR positive with increased CD80; FIG. 2
Protocol: The cells were resuspended in 500 μL of separation buffer per 10^8 total cells. […] The cells retained in the column were eluted into a sterile 50 mL polystyrene conical tube.
(§1) Compounds, reconstituted in dimethyl sulfoxide (DMSO, sterile cell culture grade, Sigma Chemical Co., St. Louis, Mo.) were added at 2× their final concentration to a 96-well flat-bottom sterile tissue culture polystyrene plate (Benton Dickinson Labware, Franklin Lakes, N.J.). Cells were then added at 2× the final concentration (final cell concentration is 1×10^6 cells/mL). Plates were incubated for 16-24 hours at 37° C., 5% CO2. After incubation, plates were centrifuged at 1000 RPM for 10 minutes at 25° C. Supernatants were transferred to a 0.75 mL sterile polypropylene Matrix box (Matrix, Hudson, N.Y.) and stored at −20° C. for future cytokine analysis.

[3] = test system: myeloid dendritic cells (mDCs); assay: Activation of blood myeloid dendritic cells (CD80/HLA-DR staining, flow cytometry); type: cell-based, human; details: two donors; 1 μM IRM or 3 μM CpG2216, 16-24 hours; HLA-DR positive with increased CD80; FIG. 1
Protocol: The blood myeloid dendritic cells (mDC) were isolated from the BDCA-4 negative cell fraction using the Miltenyi Microbead technology system (Miltenyi BioTec, Auburn, Calif.). Cells were resuspended in 4° C. separation buffer (PBS- pH 7.2, 0.5% BSA-2.5 gm, 2 mM 0.5M EDTA) at 20 μl per 10^7 total cells. […] The cells were resuspended in 500 μL of separation buffer per 10^8 total cells. […] BDCA-1^+mDCs were enriched using the Miltenyi Automacs POSSELD software. The cells retained in the column were eluted into a sterile 50 mL polystyrene conical tube.
as §1

TLR8: fold increase of NFκB-induced luciferase signal compared to a DMSO control [1] | Compound | activation of plasmacytoid dendritic cells (pDCs) in vitro [2] | activation of myeloid dendritic cells (mDCs) in vitro [3]
5.92 fold increase | CCC(C)NC(=S)NCCn1c(CCOC)nc2c(N)nc3ccccc3c21 (centres unmarked) [IRM21, N-{2-[4-amino-2-(2-methoxyethyl)-1H-imidazo[4,5-c]quinolin-1-yl]ethyl}-N′-sec-butylthiourea] | – | –
4.18 fold increase | CCc1nc2c(N)nc3ccccc3c2n1CCCCSc1cc(Cl)cc(Cl)c1 [IRM14, 1-{4-[(3,5-dichlorophenyl)thio]butyl}-2-ethyl-1H-imidazo[4,5-c]quinolin-4-amine] | – | –
7.37 fold increase | COCCc1nc2c(N)nc3c(c2n1CC(C)(C)NS(C)(=O)=O)CCCC3 [IRM22, N-{2-[4-amino-2-(2-methoxyethyl)-6,7,8,9-tetrahydro-1H-imidazo[4,5-c]quinolin-1-yl]-1,1-dimethylethyl}methanesulfonamide] | – | –
8.64 fold increase | CCOCc1nc2c(N)nc3c(c2n1CC(C)(C)O)CCCC3 [IRM16, 4-amino-2-ethoxymethyl-α,α-dimethyl-6,7,8,9-tetrahydro-1H-imidazo[4,5-c]quinoline-1-ethanol] | activated | activated
7.25 fold increase | COCCc1nc2c(N)nc3ccccc3c2n1CCOCCNC(=O)Nc1ccccc1 [IRM19, N-(2-{2-[4-amino-2-(2-methoxyethyl)-1H-imidazo[4,5-c]quinolin-1-yl)ethoxy}ethyl)-N′-phenylurea] | – | –

The next lines start with the compound.

Compound | TLR8: fold increase of NFκB-induced luciferase signal compared to a DMSO control [1] | activation of plasmacytoid dendritic cells (pDCs) in vitro [2] | activation of myeloid dendritic cells (mDCs) in vitro [3]
CCOCc1nc2c(N)nc3ccccc3c2n1CC(C)C [IRM1, 2-(ethoxymethyl)-1-(2-methylpropyl)-1H-imidazo[4,5-c]quinolin-4-amine] | 1.02 fold increase | – | –
CCc1nc2c(N)nc3ccccc3c2n1CCCCNC(=O)C1CCCCC1 [IRM8, N-[4-(4-amino-2-ethyl-1H-imidazo[4,5-c]quinolin-1-yl)butyl]cyclohexanecarboxamide] | 0.99 fold increase | – | –
COCCc1nc2c(N)nc3ccccc3c2n1CCOCCN(C)C(=O)C1CCCCC1 [IRM3, N-(2-{2-[4-amino-2-(2-methoxyethyl)-1H-imidazo[4,5-c]quinolin-1-yl]ethoxy}ethyl)-N-methylcyclohexanecarboxamide] | 1.14 fold increase | – | –
CCCCc1nc2c(N)nc3ccccc3c2n1CCCCCS(C)(=O)=O [IRM6, 2-butyl-1-[5-(methylsulfonyl)pentyl]-1H-imidazo[4,5-c]quinolin-4-amine] | 0.90 fold increase | – | –
